# Target: Aldo-keto reductase family 1 member B1 (Homo sapiens, UniProt P15121)
# Test: SPR Assay
# Settings: pH 8.5
# Description: The anti-His antibody (His Capture Kit, GE Healthcare) was immobilized on sensor chip CM5 (GE Healthcare), in a Biacore T200 or Biacore S200 instrument, to ∼10000 resonance units (RU) using a standard amine coupling procedure (Amine Coupling Kit, GE Healthcare). His-tagged aldose reductase (ALR2), at a concentration of 100 μg/mL, was captured on the anti-His antibody using dual injection consisting of a 3 min injection of protein followed by a 100 s activation with a mixture (1:1) of 0.2 M N-ethyl-N-(dimethylamino)propylcarbodiimide (EDC) and 50 mM N-hydroxysuccinimide (NHS), and final blocking with an injection of 1.0 Methanolamine (pH 8.5) for 100 s. […] For the interaction analysis, the compound concentrations ranged from 3 to 10000 nM with a 5-fold dilution step, using a single-cycle kinetic approach with three or five concentrations or injections per cycle.
row,Kd,SMILES
1,16 nM,"NC(=O)[C@@H]1C[C@]2(NC(=O)NC2=O)c2cc(F)ccc2O1 [(2S,4S)-6-fluoro-2,5-dioxo-2,3-dihydrospiro[chromene-4,4-imidazolidine]-2-carboxamide]"
2,15 nM,"O=C(O)COc1ccc(-c2ccccc2)cc1C(=O)NCc1cccc([N+](=O)[O-])c1 [ALR2 inhibitor, 11]"
3,14 nM,O=C(O)COc1cc(Cl)ccc1C(=O)NCc1cccc([N+](=O)[O-])c1 [2-(5-chloro-2-{[(3-nitrophenyl)methyl]carbamoyl}phenoxy)acetic acid]
4,23 nM,"O=C(O)COc1cc(F)ccc1C(=O)Nc1cccc([N+](=O)[O-])c1 [ALR2 inhibitor, 8]"

# Reference: BindingDB's records for doi:10.1021/acschembio.7b00062 (Philipps-Universität Marburg, 2017)
